Data from ChEMBL document CHEMBL1201862, “PubChem BioAssay data set” (2004).
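Tested at 5 concentrations; 48 h exposure; 96-well plates; endpoints linearly interpolated, else capped at highest concentration. Abbreviation: GI50, concentration required for 50% inhibition of growth.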 Active and inactive are the calls of the source. Rule as the data show it: active = GI50 up to about 1.1 µM and inactive = higher.

Legend:
Assay in all cases: NCI tumour cell line growth inhibition, 48 h
HCT-15 = test system: HCT-15
SF-268 = test system: SF-268
SK-MEL-2 = test system: SK-MEL-2
SK-MEL-5 = test system: SK-MEL-5
NCI-H226 = test system: NCI-H226
HOP-62 = test system: HOP-62
K562 = test system: K562
SK-OV-3 = test system: SK-OV-3
OVCAR-5 = test system: OVCAR-5
HCC 2998 = test system: HCC 2998
OVCAR-8 = test system: OVCAR-8
SNB-78 = test system: SNB-78
HT-29 = test system: HT-29
TK-10 = test system: TK-10
LOX IMVI = test system: LOX IMVI
A549 = test system: A549
Malme-3M = test system: Malme-3M
SK-MEL-28 = test system: SK-MEL-28
SF-539 = test system: SF-539
A498 = test system: A498

Structure (SMILES)	GI50 (HCT-15)	GI50 (SF-268)	GI50 (SK-MEL-2)	GI50 (SK-MEL-5)	GI50 (NCI-H226)	GI50 (HOP-62)	GI50 (K562)	GI50 (SK-OV-3)	GI50 (OVCAR-5)	GI50 (HCC 2998)	GI50 (OVCAR-8)	GI50 (SNB-78)	GI50 (HT-29)	GI50 (TK-10)	GI50 (LOX IMVI)	GI50 (A549)	GI50 (Malme-3M)	GI50 (SK-MEL-28)	GI50 (SF-539)	GI50 (A498)
CC(c1ccc(Br)cc1)C(C(=O)O)C(=O)O (stereo unspecified)	> 100 µM	> 100 µM (inactive)	> 100 µM (inactive)	> 100 µM (inactive)	> 100 µM (inactive)	> 100 µM (inactive)	> 100 µM (inactive)	> 100 µM (inactive)	> 100 µM (inactive)	> 100 µM (inactive)	> 100 µM (inactive)	> 100 µM (inactive)	> 100 µM (inactive)	> 100 µM (inactive)	> 100 µM (inactive)	> 100 µM (inactive)	> 100 µM (inactive)	> 100 µM (inactive)		
CN1/C(=C/C(=O)c2ccc(Cl)cc2)Nc2ccccc21	45.9 µM	43.9 µM (inactive)	> 100 µM (inactive)	25.5 µM (inactive)	13.6 µM (inactive)		35.9 µM (inactive)		18.9 µM (inactive)	56 µM (inactive)	83.9 µM (inactive)	> 100 µM (inactive)	50.7 µM (inactive)		39.3 µM (inactive)	25.9 µM (inactive)	> 100 µM (inactive)	99.1 µM (inactive)	58.7 µM (inactive)	
CC(=O)O[C@H]1C(=O)[C@@]2(C)[C@H]([C@H](OC(=O)c3ccncc3)[C@]3(O)C[C@H](OC(=O)[C@H](O)[C@@H](NC(=O)c4ccccc4)c4ccccc4)C(C)=C1C3(C)C)[C@]1(OC(C)=O)CO[C@@H]1C[C@@H]2O	> 25 µM	> 11.6 µM (inactive)	6.71 µM (inactive)	2.3 µM (inactive)	16.1 µM (inactive)	> 12.4 µM (inactive)	0.953 µM (active)	14.2 µM (inactive)	10 µM (inactive)	3.24 µM (inactive)	8.53 µM (inactive)		1.42 µM (inactive)	> 25 µM (inactive)	1.42 µM (inactive)	18 µM (inactive)	2.31 µM (inactive)	> 11.6 µM (inactive)	0.875 µM (active)	> 15.5 µM (inactive)
COc1ccccc1/N=N/C(=N\NC(=O)c1ccc(C)cc1)c1ccc(N(CCC#N)CCC#N)cc1C	41.4 µM	38.1 µM (inactive)	36.4 µM (inactive)	20.8 µM (inactive)	2.19 µM (inactive)	50.9 µM (inactive)	37.8 µM (inactive)	32.5 µM (inactive)	> 100 µM (inactive)	42.6 µM (inactive)	42.3 µM (inactive)		39.7 µM (inactive)	> 100 µM (inactive)	40.9 µM (inactive)	40.9 µM (inactive)	25.4 µM (inactive)	> 100 µM (inactive)	> 100 µM (inactive)	51.8 µM (inactive)
CC(C)=CC(=O)c1c(C(=O)O)nc2ccccc2[n+]1[O-]	> 100 µM	> 100 µM (inactive)	> 100 µM (inactive)	> 100 µM (inactive)	> 100 µM (inactive)	> 100 µM (inactive)	> 100 µM (inactive)	> 100 µM (inactive)	> 100 µM (inactive)	> 100 µM (inactive)		> 100 µM (inactive)	> 100 µM (inactive)	> 100 µM (inactive)	> 100 µM (inactive)	> 100 µM (inactive)		> 100 µM (inactive)	> 100 µM (inactive)	> 100 µM (inactive)
O=c1ccn(-c2ccccn2)c(=O)n1-c1ccccn1	> 100 µM	> 100 µM (inactive)	> 100 µM (inactive)	> 100 µM (inactive)	> 100 µM (inactive)	> 100 µM (inactive)	> 100 µM (inactive)	> 100 µM (inactive)	> 100 µM (inactive)	> 100 µM (inactive)	> 100 µM (inactive)		> 100 µM (inactive)	> 100 µM (inactive)	> 100 µM (inactive)	> 100 µM (inactive)	> 100 µM (inactive)	> 100 µM (inactive)	> 100 µM (inactive)	> 100 µM (inactive)
CCCNC(=S)N/N=C(\C)c1ccc(S(=O)(=O)N(C)c2ccccc2)cc1	> 88.5 µM	7.06 µM (inactive)	40.8 µM (inactive)	> 100 µM (inactive)	29.1 µM (inactive)	6.34 µM (inactive)	> 100 µM (inactive)	45 µM (inactive)	> 67.6 µM (inactive)	> 100 µM (inactive)	24.5 µM (inactive)		> 100 µM (inactive)	25.5 µM (inactive)	> 100 µM (inactive)	46.3 µM (inactive)	> 100 µM (inactive)	> 100 µM (inactive)	5.25 µM (inactive)	55.3 µM (inactive)
Cc1ccc(S(=O)(=O)NC(=O)C2S(=O)(=O)OCCOS2(=O)=O)cc1		> 100 µM (inactive)	> 100 µM (inactive)	> 100 µM (inactive)	1.24 µM (inactive)	> 100 µM (inactive)	> 100 µM (inactive)	> 100 µM (inactive)		> 100 µM (inactive)	> 100 µM (inactive)	> 100 µM (inactive)	> 100 µM (inactive)	> 100 µM (inactive)		> 100 µM (inactive)	> 100 µM (inactive)	> 100 µM (inactive)	> 100 µM (inactive)	
C1=CCC[C@@H]2CN3CCCC/C=C\CCCC[C@H]4C[C@H](CN(CCCCCCCC1)C4)[C@H]2CC3	10.4 µM	10.5 µM (inactive)	8.61 µM (inactive)	9.27 µM (inactive)	> 50 µM (inactive)	8.45 µM (inactive)	9.79 µM (inactive)	> 50 µM (inactive)	10.6 µM (inactive)	7.59 µM (inactive)	9.55 µM (inactive)		10.9 µM (inactive)	8.83 µM (inactive)	8.59 µM (inactive)	9.2 µM (inactive)	9.33 µM (inactive)	7.93 µM (inactive)	7.98 µM (inactive)	12.3 µM (inactive)
COc1ccc(N2C(=O)C3c4[nH]c5ccccc5c4C4CCCCCCCCCCC4C3C2=O)cc1 (stereo unspecified)	5.52 µM	5.16 µM (inactive)	> 100 µM (inactive)	21.7 µM (inactive)	6.93 µM (inactive)	20.3 µM (inactive)	19 µM (inactive)	28.8 µM (inactive)	> 37.1 µM (inactive)	> 100 µM (inactive)	3.39 µM (inactive)		4.42 µM (inactive)	> 43.8 µM (inactive)	11.1 µM (inactive)	4.84 µM (inactive)	17.1 µM (inactive)	11.9 µM (inactive)	11 µM (inactive)	9.4 µM (inactive)
CC(C)N1C=[N+](C(C)C)CC1	> 100 µM	> 100 µM (inactive)	> 100 µM (inactive)	> 100 µM (inactive)	> 100 µM (inactive)	> 100 µM (inactive)	> 100 µM (inactive)	> 100 µM (inactive)	> 100 µM (inactive)	> 100 µM (inactive)	> 100 µM (inactive)		> 100 µM (inactive)	> 100 µM (inactive)	> 100 µM (inactive)	> 100 µM (inactive)	> 100 µM (inactive)	> 100 µM (inactive)	> 100 µM (inactive)	> 100 µM (inactive)
N#C/C(=C1\SC(/N=N/c2ccc(Cl)cc2)C(=O)N1c1ccccc1)c1nc2ccccc2[nH]1 (stereo unspecified)	65.8 µM	> 100 µM (inactive)	18.2 µM (inactive)	35 µM (inactive)	23.4 µM (inactive)	19.8 µM (inactive)	14.1 µM (inactive)	15.5 µM (inactive)	25.6 µM (inactive)		54.2 µM (inactive)	42.1 µM (inactive)	63.8 µM (inactive)	24.9 µM (inactive)	15 µM (inactive)	29.7 µM (inactive)	28.4 µM (inactive)	36 µM (inactive)	32.4 µM (inactive)	29.7 µM (inactive)
O=[N+]([O-])C[C@@]12O[C@]3(O)C4C5CC(C6C5C3C61)C42 (stereo partly specified)	> 100 µM	> 100 µM (inactive)	> 100 µM (inactive)	> 100 µM (inactive)	> 100 µM (inactive)	> 100 µM (inactive)	> 100 µM (inactive)	> 100 µM (inactive)	> 100 µM (inactive)	< 0.01 µM (active)	> 100 µM (inactive)		> 100 µM (inactive)	> 100 µM (inactive)	> 100 µM (inactive)	> 100 µM (inactive)	> 100 µM (inactive)	> 100 µM (inactive)	> 100 µM (inactive)	> 100 µM (inactive)
C=CC[P@@]1(=O)O[C@H](c2ccccc2)C(C)N1C(C)C (stereo partly specified)	> 100 µM	> 100 µM (inactive)		> 100 µM (inactive)	> 100 µM (inactive)		> 100 µM (inactive)	> 100 µM (inactive)	> 100 µM (inactive)	> 100 µM (inactive)	> 100 µM (inactive)	> 100 µM (inactive)	> 100 µM (inactive)	> 100 µM (inactive)	> 100 µM (inactive)	> 100 µM (inactive)	> 100 µM (inactive)	> 100 µM (inactive)	> 100 µM (inactive)	> 100 µM (inactive)
C/C=C1/CN2CCC34C5=CC(=O)C(c6cc7c(cc6OC)N(C)C6=C(C(=O)OC)CC8(CC)CCCN9CCC67C98)=CC5=NC23CCC1C4C(=O)OC (stereo unspecified)	14.6 µM	18 µM (inactive)	16.5 µM (inactive)	15.2 µM (inactive)	20.4 µM (inactive)	16.8 µM (inactive)	3.48 µM (inactive)	16.7 µM (inactive)	12.2 µM (inactive)	15.7 µM (inactive)	14.9 µM (inactive)		14.2 µM (inactive)	17 µM (inactive)	16.7 µM (inactive)	16.2 µM (inactive)	15 µM (inactive)	16.8 µM (inactive)	14.6 µM (inactive)	16.6 µM (inactive)
